Test results taken from the supplement of paper PMC10331698.
± gives the standard deviation of the averaged measurements.

Legend:
Assay in all cases: level (log10 ratio to DMSO vehicle control); higher = higher biomarker level / cell amount than vehicle control
Conditions in all cases: in DMSO
[1] = compound: FC(F)(F)C(F)(F)C(F)(F)C(F)(F)C(F)(F)C(F)(F)C(F)(F)C(F)(F)CCS [2-(Perfluorooctyl)ethanthiol]
Description: (§1)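 BioMAP Diversity Plus panel of 12 human primary cell co-culture systems (3C, 4H, LPS, SAg, BT, BF4T, BE3C, CASM3C, HDF3CGF, KF3CT, MyoF, Mphg). Compounds were added 1 h before stimulation and left for 24 h (MyoF 48 h; BT 72 h for soluble read-outs or 6 d for IgG). Biomarkers were read by ELISA, cytotoxicity by SRB, PBMC viability and proliferation by Alamar Blue. Each well value was divided by the mean of 8 DMSO control wells on the same plate and log10 transformed; duplicate blinded samples were tested at 4 concentrations.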

[2] = compound: FC(F)(F)C(F)(C(F)(F)F)C(F)(F)C(F)(F)CC1CO1 [3-(Perfluoro-3-methylbutyl)-1,2-propenoxide]
Description: as §1

Perfluorodecanoic acid = compound: O=C(O)C(F)(F)C(F)(F)C(F)(F)C(F)(F)C(F)(F)C(F)(F)C(F)(F)C(F)(F)C(F)(F)F [Perfluorodecanoic acid]
Description: as §1

[3] = compound: CCN(CCO)S(=O)(=O)C(F)(F)C(F)(F)C(F)(F)C(F)(F)C(F)(F)C(F)(F)C(F)(F)C(F)(F)F [N-Ethyl-N-(2-hydroxyethyl)perfluorooctanesulfonamide]
Description: as §1

Perfluorobutanoic acid = compound: O=C(O)C(F)(F)C(F)(F)C(F)(F)F [Perfluorobutanoic acid]
Description: as §1

[4] = compound: OCCC(F)(F)C(F)(F)C(F)(F)C(F)(F)C(F)(F)C(F)(F)F [6:2 Fluorotelomer alcohol]
Description: as §1

[5] = compound: COC(=O)CCC(F)(F)C(F)(F)C(F)(F)C(F)(F)F [Methyl 2H,2H,3H,3H-perfluoroheptanoate]
Description: as §1

[6] = compound: FC(F)(F)C(F)(F)C(F)(F)C(F)(F)C(F)(F)CCI [1-Iodo-1H,1H,2H,2H-perfluoroheptane]
Description: as §1

Row | Test System | level (log10) ([1]; 6700 nM) | level (log10) ([1]; 20000 nM) | level (log10) ([2]; 6700 nM) | level (log10) ([2]; 20000 nM) | level (log10) (Perfluorodecanoic acid; 6700 nM) | level (log10) (Perfluorodecanoic acid; 20000 nM) | level (log10) ([3]; 6700 nM) | level (log10) ([3]; 20000 nM) | level (log10) (Perfluorobutanoic acid; 6700 nM) | level (log10) (Perfluorobutanoic acid; 20000 nM) | level (log10) (Perfluorobutanoic acid; 60000 nM) | level (log10) ([4]; 6700 nM) | level (log10) ([4]; 20000 nM) | level (log10) ([5]; 6700 nM) | level (log10) ([5]; 20000 nM) | level (log10) ([5]; 60000 nM) | level (log10) ([6]; 6700 nM) | level (log10) ([6]; 20000 nM) | level (log10) ([6]; 60000 nM)
1 | CASM3C:IL-6 | 0.0235 ± 0.09 | 0.0465 ± 0.035 | -0.02 ± 0.0057 | 0.007 ± 0.027 | -0.035 ± 0.037 | -0.0375 ± 0.039 | -0.0025 ± 0.0035 | -0.0255 ± 0.044 | -0.0295 ± 0.012 | -0.0175 ± 0.021 | 0.0115 ± 0.044 | 0.0015 ± 0.018 | -0.004 ± 0.0099 | -0.019 ± 0.021 | -0.025 ± 0.0028 | 0.0005 ± 0.028 | -0.0145 ± 0.022 | -0.044 ± 0.0057 | -0.017 ± 0.018
2 | MyoF:TIMP-1 | -0.033 ± 0.014 | -0.0215 ± 0.005 | -0.0165 ± 0.022 | -0.047 ± 0.052 | -0.0345 ± 0.035 | -0.059 ± 0.038 | -0.112 ± 0.011 | -0.0885 ± 0.0092 | -0.039 ± 0.055 | -0.02 ± 0.02 | 0.0035 ± 0.0092 | 0.002 ± 0.04 | 0.0085 ± 0.047 | -0.0585 ± 0.047 | -0.02 ± 0.035 | 0.01 ± 0.014 | 0.0095 ± 0.0064 | -0.009 ± 0.0028 | -0.038 ± 0.025
3 | MyoF:Decorin | -0.0145 ± 0.018 | -0.0105 ± 0.033 | 0.0025 ± 0.029 | 0.026 ± 0.042 | 0.0055 ± 0.0064 | -0.071 ± 0.018 | -0.0095 ± 0.016 | -0.085 ± 0.028 | -0.013 ± 0.0014 | -0.0105 ± 0.039 | -0.0025 ± 0.00071 | -0.0055 ± 0.0021 | 0.0085 ± 0.011 | -0.001 ± 0.013 | 0.015 ± 0.0028 | 0.0175 ± 0.052 | -0.012 ± 0.0028 | -0.022 ± 0.023 | -0.007 ± 0.034
4 | HDF3CGF:EGFR | -0.0295 ± 0.018 | -0.018 ± 0.04 | -0.015 ± 0.0028 | 0.0035 ± 0.023 | -0.075 ± 0.054 | -0.195 ± 0.026 | -0.102 ± 0.024 | -0.115 ± 0.0021 | -0.004 ± 0.041 | -0.0155 ± 0.025 | 0.012 ± 0.0057 | 0.0005 ± 0.012 | 0.006 ± 0.0099 | -0.0045 ± 0.0078 | 0.0105 ± 0.029 | -0.0055 ± 0.053 | 0.046 ± 0.02 | 0.059 ± 0.021 | 0.038 ± 0.031
5 | lMphg:CCL2/MCP-1 | -0.0125 ± 0.0078 | -0.003 ± 0.02 | -0.0165 ± 0.012 | 0.0075 ± 0.012 | 0.001 ± 0.0042 | 0.0095 ± 0.023 | 0.007 ± 0.034 | 0.002 ± 0.023 | -0.0205 ± 0.021 | -0.0165 ± 0.018 | 0.0135 ± 0.022 | -0.019 ± 0.0042 | -0.025 ± 0.016 | -0.004 ± 0.0085 | -0.011 ± 0.011 | 0.003 ± 0.031 | -0.005 ± 0.021 | -0.027 ± 0.016 | -0.037 ± 0.0071
6 | CASM3C:CXCL8/IL-8 | 0.021 ± 0.047 | 0.034 ± 0.037 | -0.0065 ± 0.005 | -0.003 ± 0.0014 | -0.0035 ± 0.0064 | -0.006 ± 0.0028 | -0.0075 ± 0.016 | -0.024 ± 0.0085 | -0.001 ± 0.013 | -0.0065 ± 0.005 | 0.008 ± 0.013 | 0.019 ± 0.0014 | 0.0195 ± 0.015 | -0.0135 ± 0.011 | -0.0115 ± 0.005 | -0.0085 ± 0.013 | 0.002 ± 0.0028 | -0.0025 ± 0.0035 | 0.003 ± 0.018
7 | 3C:CD142/Tissue Factor | -0.0345 ± 0.022 | -0.0335 ± 0.015 | -0.0095 ± 0.044 | -0.0125 ± 0.047 | -0.013 ± 0.013 | -0.029 ± 0.0042 | 0.0825 ± 0.036 | 0.235 ± 0.059 | 0.011 ± 0.0042 | 0.0085 ± 0.021 | 0.0035 ± 0.043 | -0.003 ± 0.044 | -0.014 ± 0.025 | -0.0115 ± 0.066 | -0.038 ± 0.021 | -0.0005 ± 0.026 | 0.003 ± 0.016 | 0.0155 ± 0.00071 | 0.0295 ± 0.00071
